# Measurements taken from paper PMC9081329, “Pharmacokinetics, Mass Balance, Excretion, and Tissue Distribution of Plasmalogen Precursor PPI-1011” (Frontiers in Cell and Developmental Biology, 2022).
# Experiments:
# [1] = Dose formulation stability by HPLC with radioactivity detection; assay type: physicochemical; conditions: 20 mg/ml in LCO with 0.1% 1-thioglycerol
# Experimental: PPI-1011 and [^14C]PPI-1011 were formulated together in liquid coconut oil (LCO) containing 0.1% 1-thioglycerol for oral dosing. For single dose studies, PPI-1011 and [^14C]PPI-1011 were combined to generate an oral formulation with a concentration of 20 mg/ml and 40 μCi/ml on the day before dosing and stored at 4°C. Formulation for the repeat dosing QWBA experiment was made on the day prior to the first dose with a concentration of 20 mg/ml and 20 μCi/ml. This formulation was then aliquoted and stored frozen at −20°C until the day of use. Concentration and radiochemical purity of all formulations were confirmed by HPLC prior to dosing.
# Radiochemical concentrations and purity of the oral dose formulations were all confirmed to be >97% by HPLC with radioactivity detection. The mean radioactivity concentrations of dose formulations were 21.24 μCi/g. Representative radiochromatograms obtained from analysis of dose formulation of [^14C]PPI-1011 are shown in Supplementary Figure S1. The retention time of [^14C]PPI-1011 was approximately 12 min. The stability of the dose formulation at 20 mg/ml concentration was examined at 4°C and at −20°C for up to 24 h. The results are shown in Supplementary Figure S2. […]
# [2] = Plasma pharmacokinetics of total radioactivity after a single oral dose of [^14C]PPI-1011 100 mg/kg; assay type: in vivo, Sprague-Dawley rats; conditions: single oral 100 mg/kg; for AUCInf / AUClast / Cmax / MRTInf / t1/2 / tmax / AUC Extr: plasma total radioactivity
# Experimental: The pharmacokinetics of [^14C]PPI-1011 were performed in four rats that were surgically implanted with femoral artery catheters (FAC) for blood collection at least 2 days before dosing began. [^14C]PPI-1011 was administered as a single oral dose at 100 mg/kg (200 μCi/kg). Blood samples were collected in EDTA tubes and centrifuged to obtain plasma at 1, 3, 6, 12, 18, 24, 48, and 72 h after drug administration. Duplicate aliquots of plasma (∼25 μl or higher) were transferred to liquid scintillation vials and the weights of sample aliquots were recorded. Aliquots were mixed with Ultima Gold (5 ml) as scintillation fluid and total radioactivity was determined by liquid scintillation counting (LSC) and used to calculate the total radioactive concentration.
# The PK calculations of total radioactivity in plasma were analyzed with non-compartmental analyses using Phoenix® WinNonlin® software (version 8.1). Statistical calculations for the other studies were limited to simple parameters such as means or averages, standard deviations (sd), and percentages (%). The amount of compound equivalents (Eq) in samples was calculated as concentrations expressed in μg Eq/g. Dose, MCID™ generated tissue concentrations, pharmacokinetic, and radioanalysis data were compiled using Microsoft Excel for Microsoft 365, Version 2010.
smiles,measurement,setting,value
CC/C=C\C/C=C\C/C=C\C/C=C\C/C=C\C/C=C\CCC(=O)O[C@H](CO[14CH2]CCCCCCCCCCCCCCC)COC(=O)CCCCC1CCSS1 (stereo partly drawn) [[^14C]PPI-1011],Radioactive purity of dose formulation after storage (stability),[1]; up to 24 h at 4°C,96.5%
same,Radioactive purity of dose formulation after storage (stability),[1]; up to 24 h at −20°C,97.2%
same,Mean total radioactivity in plasma,[2]; 1 h,approximately 500 ng Eq/g
same,Mean total radioactivity in plasma,[2]; 6 h,"~27,000 ng Eq/g"
same,Mean total radioactivity in plasma,[2]; 72 h,"~4,000 ng Eq/g"
same,AUCInf,[2]; Mean of 4 rats,"867,000 h*ng/ml"
same,AUClast,[2]; Mean of 4 rats,"608,000 h*ng/ml"
same,Cmax,[2]; Mean of 4 rats,"27,900 ng/ml"
same,MRTInf,[2]; Mean of 4 rats,55 h
same,t1/2,[2]; Mean of 4 rats,40 h
same,tmax,[2]; Mean of 4 rats,7.5 h
same,AUC Extr,[2]; Rat 1,6.8%
same,AUCInf,[2]; Rat 1,"753,000 h*ng/ml"
same,AUClast,[2]; Rat 1,"702,000 h*ng/ml"
same,Cmax,[2]; Rat 1,"30,000 ng/ml"
same,MRTInf,[2]; Rat 1,27 h
same,t1/2,[2]; Rat 1,18 h
same,tmax,[2]; Rat 1,6.0 h
same,AUC Extr,[2]; Rat 2,31%
same,AUCInf,[2]; Rat 2,"953,000 h*ng/ml"
same,AUClast,[2]; Rat 2,"659,000 h*ng/ml"
same,Cmax,[2]; Rat 2,"21,500 ng/ml"
same,MRTInf,[2]; Rat 2,61 h
same,t1/2,[2]; Rat 2,42 h
same,tmax,[2]; Rat 2,6.0 h
same,AUC Extr,[2]; Rat 3,6.5%
same,AUCInf,[2]; Rat 3,"542,000 h*ng/ml"
same,AUClast,[2]; Rat 3,"507,000 h*ng/ml"
same,Cmax,[2]; Rat 3,"42,500 ng/ml"
same,MRTInf,[2]; Rat 3,23 h
same,t1/2,[2]; Rat 3,19 h
same,tmax,[2]; Rat 3,6.0 h
same,AUC Extr,[2]; Rat 4,54%
same,AUCInf,[2]; Rat 4,"1,220,000 h*ng/ml"
same,AUClast,[2]; Rat 4,"565,000 h*ng/ml"
same,Cmax,[2]; Rat 4,"17,400 ng/ml"
same,MRTInf,[2]; Rat 4,110 h
same,t1/2,[2]; Rat 4,80 h
same,tmax,[2]; Rat 4,12 h
